Reference: article PMC11609934, “Exploration and characterization of the antimalarial activity of cyclopropyl carboxamides that target the mitochondrial protein, cytochrome b” (European Journal of Medicinal Chemistry, 2024)
≈ marks a conversion by molar mass, not a printed value.

Experiments:
[1] = Human HepG2 growth inhibition assay (Cell TitreGlo, 48 h); type: cell-based; conditions: human, HepG2 cells, HepG2 cell growth inhibition over 48 h
Method in brief: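 HepG2 cells (1000/well, DMEM + 10% FCS) exposed 48 h at 37 °C, 5% CO2 to compound from 50 μM top concentration in 1:2 dilutions, 0.5% DMSO final. Viability read by Cell Titer Glo, normalised to DMSO and 10 μM bortezomib; EC50 by four-parameter variable-slope fit.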

[2] = Aqueous solubility (kinetic in PBS, pH 7.4); type: physicochemical; conditions: phosphate buffered saline
Experimental: Solubility. The solubility assay was performed using a miniaturized shake flask method. A solution of phosphate buffered saline (PBS) and the test compound (200 μM) was incubated at 25 °C with constant shaking (600 rpm) for 2 h. The samples were filtered using a multiscreen solubility filter plate. The filtrate was half diluted in acetonitrile. A five-point linearity curve was prepared in PBS:acetonitrile (1:1, v/v) at 200, 150, 75, 25 and 2.5 μM. Blank, linearity and test samples (n = 2) were transferred to a UV readable plate and the plate was scanned for absorbance. Best fit calibration curves were constructed using the calibration standards and used to determine the test sample solubility. The experiment was carried out in duplicate. Diethylstilbestrol, haloperidol, and diclofenac sodium were used as reference standards.

[3] = tested on: Pf SB1-A6 strain; assay: Asexual stage assay, SB1-A6 strain; type: cell-based; conditions: Plasmodium falciparum, 72 h, read-out: SB1-A6 EC50 (SD)
Experimental: DHODH is essential for the function of the mitochondria ETC and pyrimidine biosynthesis. Compounds that inhibit cyt b typically have reduced activity against parasite strains with increased DHODH levels. To support evidence that the cyclopropyl carboxamide series impacts the mitochondrial ETC, selected analogs were evaluated against both the SB1-A6 strain that has a 2-fold amplification and a C276F SNP in PfDHODH [24] and a Dd2 strain that expresses Saccharomyces cerevisiae DHODH (ScDHODH). ScDHODH has low sequence homology to PfDHODH and is ubiquinone-independent in that it uses fumarate instead of mitochondrial coenzyme Q as an electron acceptor and therefore compounds that inhibit the Plasmodium mitochondrial ETC have reduced activity against the ScDHODH parasite strain.
Cyt b Resistant and ScDHODH Asexual Stage Assays. These assays were conducted as previously described. Briefly, asexual parasite strains indicated in Table 12 were incubated with compound in a dose response format for 72 h. Parasitemia was determined using SYBR-green fluorescence measured by flow cytometry (Thermo Fisher Attune). EC50 values were determined as described for the LDH assay.

[4] = tested on: 3D7 P. falciparum strain; assay: Parasite reduction ratio (PRR) assay; type: cell-based, Plasmodium falciparum; conditions: 10 times the EC50, up to 120 h
Experimental: The parasite reduction ratio (PRR) assay is a benchmark assay used to determine the speed of kill of antimalarials at an early stage of development. […] After 28 days of incubation, parasite growth is measured using an LDH assay.
Parasite Reduction Ratio Assay. This is a platform assay conducted by TGC Lifesciences using a previously described protocol. […] Parasites were treated up to 120 h. Drug was renewed every 24 h over the entire treatment period (as directed). Samples of parasites were taken from the treated culture every 24 h (24, 48, 72, 96 and 120 h time points), drug was washed out and drug-free parasites were cultured in 96 well plates. To quantify number of viable parasites after treatment, serial dilutions were performed with the above-mentioned compounds after washing out the compound. Parasites were cultured in microtiter plates to allow all wells with viable parasites, to render detectable parasitaemia. After 22 days of culturing, cultured plates were checked for parasite growth. Final sampling was done after 28 days to confirm growth/no growth. The parasite levels were determined using a LDH assay as follows. A culture of parasitized red blood cells (RBC) of strain 3D7 with 0.25 % parasitaemia and 2 % haematocrit in RPMI-1640, 0.5 % albumax and 150 μM hypoxanthine is exposed to 3-fold serial dilutions of the compound. […]

[5] = tested on: P. berghei ANKA parasites; assay: P. berghei 4-day mouse model; type: in vivo, Plasmodium berghei
Experimental: The 4-day P. berghei mouse model is used to determine the preliminary in vivo efficacy of antimalarials at an early stage of optimization. To determine if cyclopropyl carboxamide series could reduce asexual blood stage infection, we evaluated representative compounds WJM280 (108) and analog 109 in the 4-day P. berghei mouse model. In this model, mice were infected P. berghei asexual stage parasites, and then 2 h after the infection, WJM280 (108) and analog 109 at 50 mg/kg and artesunate at 30 mg/kg were administered by oral gavage. The same compound doses were administered again, 24, 48, and 72 h post infection. Parasitemia was then quantified by preparing blood smears and visualizing by microscopy across days 2, 3, and 4. […] The inability of these compounds to reduce parasitemia was attributed to their high metabolic turnover, which is a characteristic that needs improving on further development of the cyclopropyl carboxamide class.
P. berghei 4-day Mouse Model. This model was conducted as previously described.

SMILES | CC50 at 48 h [1] [µM] | solubility at 2 h [2] [µM] | EC50 [3] [µM] | rate of kill in PRR assay [4] | body weights of mice ([5]; 50 mg/kg q.d. oral, 4 days) | % parasitemia ([5]; mice, day 4, oral gavage q.d. x4, 50 mg/kg (ART 30 mg/kg)) [%] | % reduction in parasitemia ([5]; versus vehicle control, mice, day 4, oral gavage q.d. x4, 50 mg/kg (ART 30 mg/kg)) [%]
O=C(NC1CC1)c1ccc(CN(Cc2ccc(Cl)cc2Cl)C2CC2)cc1 [W499 (2)] | > 40 | 7.4 (≈ 2.88 µg/mL) | > 10 | moderate to slow rate of kill | – | – | –
CCCN(Cc1ccc(C(=O)NC2CC2)cc1)Cc1ccc(C(F)(F)F)cc1 [WJM280 (108), N-Cyclopropyl-4-((propyl(4-(trifluoromethyl)benzyl)amino)methyl)benzamide] | 15 | 15 (≈ 5.86 µg/mL) | > 10 | – | remained unchanged | 81 | 19
